In patent US9051270B2, “Pyridone amides as modulators of sodium channels” (Vertex Pharmaceuticals Incorporated, priority 2013, dated 2015):

How the values were obtained:
[1] = target: human Nav1.8 (Homo sapiens (Human), UniProt Q9Y5Y9); experiment: E-VIPR optical membrane potential assay with electrical stimulation; format: cell-based; conditions: HEK cells expressing human Nav1.8
[2] = Microsomal stability assay, rat liver microsomes (RLM); format: in vitro ADME; conditions: rat liver microsomes 0.5 mg/mL, 1 uM substrate, 2 mM NADPH, 37° C., referenced against time zero control
Experimental: (§1) Microsomal Stability Assay.
(§2) Compounds were incubated at 37° C. and shaken for 30 minutes in a phosphate buffered solution with either rat or human liver microsomes and the cofactor NADPH. A time zero control was similarly prepared, however with NADPH excluded. The final incubation concentrations were 1 uM substrate (0.2% DMSO), 0.5 mg/mL liver microsome, 2 mM NADPH, and 0.1 M phosphate. Reactions were quenched and proteins precipitated with the addition of 2 volume equivalents of ice cold acetonitrile containing an internal standard. Following a centrifugation step, aliquots from the quenched incubations were further diluted with 4 volume equivalents of a 50% aqueous methanol solution and then subjected to LC/MS/MS analysis for quantitation of parent compound. Microsome stability values were calculated as the percent of substrate remaining after 30 minutes referenced against the time zero control.
(§3) Microsomal stability in rat and human liver microsomes were determined for selected compounds of the present invention using the above assay. Table 4 provides the human liver microsomes (“HLM”) and rat liver microsomes (“RLM”) stability data as the percent of compound remaining after 30 minutes referenced against the time zero control.

[3] = Microsomal stability assay, human liver microsomes (HLM); format: in vitro ADME; conditions: human liver microsomes 0.5 mg/mL, 1 uM substrate, 2 mM NADPH, 37° C., referenced against time zero control
Experimental: as §1, §2, §3

Sequence of human Nav1.8 (Q9Y5Y9 whole entry): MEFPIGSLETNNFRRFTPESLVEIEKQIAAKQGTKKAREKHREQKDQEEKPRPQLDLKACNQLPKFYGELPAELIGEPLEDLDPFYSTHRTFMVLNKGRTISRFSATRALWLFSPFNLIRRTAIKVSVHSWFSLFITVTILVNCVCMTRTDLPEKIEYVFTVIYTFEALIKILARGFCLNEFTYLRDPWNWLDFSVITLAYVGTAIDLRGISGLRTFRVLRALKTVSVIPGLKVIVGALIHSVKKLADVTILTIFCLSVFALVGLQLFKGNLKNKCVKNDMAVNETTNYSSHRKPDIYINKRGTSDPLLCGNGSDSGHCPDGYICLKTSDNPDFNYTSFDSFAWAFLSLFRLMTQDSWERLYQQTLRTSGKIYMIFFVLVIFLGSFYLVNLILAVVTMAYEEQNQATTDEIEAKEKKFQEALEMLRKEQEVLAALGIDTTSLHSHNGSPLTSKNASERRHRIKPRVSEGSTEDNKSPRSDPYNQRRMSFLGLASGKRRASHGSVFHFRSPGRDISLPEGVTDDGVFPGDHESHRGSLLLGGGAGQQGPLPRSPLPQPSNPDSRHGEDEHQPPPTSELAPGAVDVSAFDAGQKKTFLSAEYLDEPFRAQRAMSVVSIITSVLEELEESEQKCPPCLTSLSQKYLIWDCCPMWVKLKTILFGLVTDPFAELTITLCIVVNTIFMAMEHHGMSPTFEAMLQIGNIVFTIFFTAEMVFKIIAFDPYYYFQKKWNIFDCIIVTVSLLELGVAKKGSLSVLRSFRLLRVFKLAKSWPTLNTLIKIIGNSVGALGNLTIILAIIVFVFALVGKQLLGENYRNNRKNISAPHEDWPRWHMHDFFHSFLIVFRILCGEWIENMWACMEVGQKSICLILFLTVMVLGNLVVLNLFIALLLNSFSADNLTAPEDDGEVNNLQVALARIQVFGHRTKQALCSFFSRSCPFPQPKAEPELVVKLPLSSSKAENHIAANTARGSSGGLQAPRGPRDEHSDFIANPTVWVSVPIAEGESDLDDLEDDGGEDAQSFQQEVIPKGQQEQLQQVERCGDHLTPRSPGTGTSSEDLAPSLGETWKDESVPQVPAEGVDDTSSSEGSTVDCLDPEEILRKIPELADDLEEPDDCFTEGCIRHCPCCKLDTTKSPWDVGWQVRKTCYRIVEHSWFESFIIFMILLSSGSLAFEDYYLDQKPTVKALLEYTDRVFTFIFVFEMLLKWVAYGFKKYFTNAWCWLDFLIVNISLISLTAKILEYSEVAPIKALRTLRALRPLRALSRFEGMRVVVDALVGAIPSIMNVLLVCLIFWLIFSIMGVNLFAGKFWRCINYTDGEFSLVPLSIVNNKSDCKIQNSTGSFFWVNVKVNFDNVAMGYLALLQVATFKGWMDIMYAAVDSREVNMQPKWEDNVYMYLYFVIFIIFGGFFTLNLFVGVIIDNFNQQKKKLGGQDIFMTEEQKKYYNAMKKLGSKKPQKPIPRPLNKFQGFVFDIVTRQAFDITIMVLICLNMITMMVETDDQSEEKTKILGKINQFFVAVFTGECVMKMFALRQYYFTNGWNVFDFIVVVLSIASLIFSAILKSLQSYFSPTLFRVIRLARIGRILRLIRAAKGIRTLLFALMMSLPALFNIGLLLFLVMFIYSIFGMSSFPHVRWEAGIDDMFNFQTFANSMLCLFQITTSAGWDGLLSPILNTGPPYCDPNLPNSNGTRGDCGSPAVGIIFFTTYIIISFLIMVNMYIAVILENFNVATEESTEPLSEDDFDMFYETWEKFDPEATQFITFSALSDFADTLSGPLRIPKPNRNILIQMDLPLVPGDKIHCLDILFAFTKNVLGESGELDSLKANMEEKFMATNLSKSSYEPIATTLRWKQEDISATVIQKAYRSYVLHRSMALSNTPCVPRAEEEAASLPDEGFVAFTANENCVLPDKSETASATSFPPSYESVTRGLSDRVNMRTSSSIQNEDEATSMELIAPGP

SMILES | IC50 [1] | RLM (% remaining @ 30 minutes) [2] | HLM (% remaining @ 30 minutes) [3]
O=C(Nc1cc[nH]c(=O)c1)c1ccc(C(F)(F)F)cc1Oc1ccc(F)cc1CO [Compound 157, 2-(4-fluoro-2-(hydroxymethyl)phenoxy)-N-(2-oxo-1,2-dihydropyridin-4-yl)-4-(trifluoromethyl)benzamide] | 58 nM | 102% | 101.5%
COc1cc(F)ccc1Oc1cc(Cl)c(Cl)cc1C(=O)Nc1cc[nH]c(=O)c1 [Compound 114, 4,5-dichloro-2-(4-fluoro-2-methoxyphenoxy)-N-(2-oxo-1,2-dihydropyridin-4-yl)benzamide] | 1 nM | 82% | 91%
COc1cc(F)ccc1Oc1ccc(C(F)(F)F)cc1C(=O)Nc1cc[nH]c(=O)c1 [Compound 30, 2-(4-fluoro-2-methoxyphenoxy)-N-(2-oxo-1,2-dihydropyridin-4-yl)-5-(trifluoromethyl)benzamide] | 11 nM | 78% | 76%
O=C(Nc1cc[nH]c(=O)c1)c1ccc(C(F)(F)F)cc1OCCCC(F)(F)F [Compound 123, N-(2-oxo-1,2-dihydropyridin-4-yl)-2-(4,4,4-trifluorobutoxy)-4-(trifluoromethyl)benzamide] | 355 nM | 98% | 103%
COc1cc(F)ccc1Oc1cc(C(F)(F)C(F)(F)F)ccc1C(=O)Nc1cc[nH]c(=O)c1 [Compound 111, 2-(4-fluoro-2-methoxyphenoxy)-N-(2-oxo-1,2-dihydropyridin-4-yl)-4-(perfluoroethyl)benzamide] | 3 nM | 90% | 91%
O=C(Nc1cc[nH]c(=O)c1)c1ccc(C(F)(F)F)cc1OCC1CCCC1 [Compound 120, 2-(cyclopentylmethoxy)-N-(2-oxo-1,2-dihydropyridin-4-yl)-4-(trifluoromethyl)benzamide] | 150 nM | 79% | 87%
Cc1ccccc1Oc1ccc(C(F)(F)F)cc1C(=O)Nc1cc[nH]c(=O)c1 [Compound 28, N-(2-oxo-1,2-dihydropyridin-4-yl)-2-(o-tolyloxy)-5-(trifluoromethyl)benzamide] | 44 nM | 70% | 79%
O=C(Nc1cc[nH]c(=O)c1)c1cc(C(F)(F)F)ccc1Oc1ccc(OC(F)(F)F)cc1 [Compound 72, N-(2-oxo-1,2-dihydropyridin-4-yl)-2-(4-(trifluoromethoxy)phenoxy)-5-(trifluoromethyl)benzamide] | 13 nM | 95.5% | 100%
O=C(Nc1cc[nH]c(=O)c1)c1cc(F)c(Cl)cc1Oc1ccc(F)cc1Cl [Compound 109, 4-chloro-2-(2-chloro-4-fluorophenoxy)-5-fluoro-N-(2-oxo-1,2-dihydropyridin-4-yl)benzamide] | 19 nM | 100% | 103%
CCOc1ccc(Oc2ccc(C(F)(F)F)cc2C(=O)Nc2cc[nH]c(=O)c2)cc1 [Compound 44, 2-(4-ethoxyphenoxy)-N-(2-oxo-1,2-dihydropyridin-4-yl)-5-(trifluoromethyl)benzamide] | 20 nM | 84% | 93%
COc1ccc(Oc2cc(Cl)c(Cl)cc2C(=O)Nc2cc[nH]c(=O)c2)cc1F [Compound 115, 4,5-dichloro-2-(3-fluoro-4-methoxyphenoxy)-N-(2-oxo-1,2-dihydropyridin-4-yl)benzamide] | 7 nM | 95% | 102%
O=C(Nc1cc[nH]c(=O)c1)c1cc(C(F)(F)F)ccc1Oc1ccccc1OC(F)F [Compound 76, 2-(2-(difluoromethoxy)phenoxy)-N-(2-oxo-1,2-dihydropyridin-4-yl)-5-(trifluoromethyl)benzamide] | 54 nM | 93% | 97%
Cc1cc(F)ccc1Oc1ccc(Cl)cc1C(=O)Nc1cc[nH]c(=O)c1 [Compound 68, 5-chloro-2-(4-fluoro-2-methylphenoxy)-N-(2-oxo-1,2-dihydropyridin-4-yl)benzamide] | 30 nM | 72% | 98%
O=C(Nc1cc[nH]c(=O)c1)c1cc(C(F)(F)F)ccc1Oc1ccc(F)cc1 [Compound 2, 2-(4-fluorophenoxy)-N-(2-oxo-1,2-dihydropyridin-4-yl)-5-(trifluoromethyl)benzamide] | 54 nM | 104% | 100%
O=C(Nc1cc[nH]c(=O)c1)c1c(Oc2ccc(F)cc2F)cc(C(F)(F)F)cc1C(F)(F)F [Compound 152, 2-(2,4-difluorophenoxy)-N-(2-oxo-1,2-dihydropyridin-4-yl)-4,6-bis(trifluoromethyl)benzamide] | 44 nM | 100% | 103%
O=C(Nc1cc[nH]c(=O)c1)c1cc(C(F)(F)F)ccc1Oc1ccc(F)cc1Cl [Compound 29, 2-(2-chloro-4-fluorophenoxy)-N-(2-oxo-1,2-dihydropyridin-4-yl)-5-(trifluoromethyl)benzamide] | 28 nM | 107% | 107%
O=C(Nc1cc[nH]c(=O)c1)c1ccc(C(F)(F)C(F)(F)F)cc1Oc1ccc(F)cc1 [Compound 88, 2-(4-fluorophenoxy)-N-(2-oxo-1,2-dihydropyridin-4-yl)-4-(perfluoroethyl)benzamide] | 12 nM | 102% | 100%
O=C(Nc1cc[nH]c(=O)c1)c1cc(OC(F)(F)F)ccc1Oc1ccc(F)cc1F [Compound 33, 2-(2,4-difluorophenoxy)-N-(2-oxo-1,2-dihydropyridin-4-yl)-5-(trifluoromethoxy)benzamide] | 95 nM | 110% | 100%
Cc1cc(F)ccc1Oc1ccc(C(F)(F)F)cc1C(=O)Nc1cc[nH]c(=O)c1 [Compound 31, 2-(4-fluoro-2-methylphenoxy)-N-(2-oxo-1,2-dihydropyridin-4-yl)-5-(trifluoromethyl)benzamide] | 17 nM | 91% | 92%
COCCOc1ccc(Oc2cc(C(F)(F)F)ccc2C(=O)Nc2cc[nH]c(=O)c2)cc1 [Compound 8, 2-(4-(2-methoxyethoxy)phenoxy)-N-(2-oxo-1,2-dihydropyridin-4-yl)-4-(trifluoromethyl)benzamide] | 330 nM | 86% | 90%
Cc1cc(F)ccc1Oc1cc(Cl)ccc1C(=O)Nc1cc[nH]c(=O)c1 [Compound 20, 4-chloro-2-(4-fluoro-2-methylphenoxy)-N-(2-oxo-1,2-dihydropyridin-4-yl)benzamide] | 30 nM | 88% | 104%
O=C(Nc1cc[nH]c(=O)c1)c1ccc(C(F)(F)F)cc1Oc1ccc(OC(F)(F)F)cc1 [Compound 79, N-(2-oxo-1,2-dihydropyridin-4-yl)-2-(4-(trifluoromethoxy)phenoxy)-4-(trifluoromethyl)benzamide] | 11 nM | 100% | 103%
O=C(Nc1cc[nH]c(=O)c1)c1cc(C(F)(F)F)ccc1Oc1ccccc1OC(F)(F)F [Compound 75, N-(2-oxo-1,2-dihydropyridin-4-yl)-2-(2-(trifluoromethoxy)phenoxy)-5-(trifluoromethyl)benzamide] | 51 nM | 95% | 90%
O=C(Nc1cc[nH]c(=O)c1)c1cc(Cl)c(Cl)cc1Oc1ccc(F)cc1 [Compound 113, 4,5-dichloro-2-(4-fluorophenoxy)-N-(2-oxo-1,2-dihydropyridin-4-yl)benzamide] | 6 nM | 102% | 105%
O=C(Nc1cc[nH]c(=O)c1)c1cc(F)ccc1Oc1ccc(OC(F)(F)F)cc1 [Compound 101, 5-fluoro-N-(2-oxo-1,2-dihydropyridin-4-yl)-2-(4-(trifluoromethoxy)phenoxy)benzamide] | 120 nM | 89% | 97%
O=C(Nc1cc[nH]c(=O)c1)c1ccc(C(F)(F)F)cc1Oc1ccc(F)cc1F [Compound 7, 2-(2,4-difluorophenoxy)-N-(2-oxo-1,2-dihydropyridin-4-yl)-4-(trifluoromethyl)benzamide] | 50 nM | 99% | 97%
